For nine molecules, Kd, Ka and Kdiss results are on record in ChEMBL document CHEMBL4311936, “Synthesis and structure-activity relationship studies of IgG-binding peptides focused on the C-terminal histidine residue” (Medchemcomm, 2019).

pKd: −log10 of the molar value. Bridge positions count the residues as written; N and C are the ends. Square brackets hold non-standard residues; d marks the D form. Peptide text beside a SMILES is read from it. ξ: configuration not given here. ξ3Pal = NC(Cc1cccnc1)C(=O)O; ξ4Pal = NC(Cc1ccncc1)C(=O)O; ξ2Thi = NC(Cc1cccs1)C(=O)O

The nature of assay [1]: Binding affinity to IgG (unknown origin) assessed as dissociation constant. Also on record: species or system Homo sapiens.
The species named for assay [2] is Homo sapiens. Briefly: Binding affinity to human IgG assessed as association rate constant by SPR analysis.
Assay [3] is described as follows: Binding affinity to human IgG assessed as dissociation constant by SPR analysis. (In SPR one partner is held on a chip, and binding of the other changes the refractive index at the surface.)
The species named for assay [4] is Homo sapiens. Nature of the assay: Binding affinity to human IgG assessed as dissociation rate constant by SPR analysis.
For assay [5], the species on record is Homo sapiens. Nature of the assay: Binding affinity to IgG (unknown origin) assessed as association rate constant.

Regarding `CC(C)C[C@@H]1NC(=O)[C@H](Cc2cnc[nH]2)NC(=O)[C@H](Cc2c[nH]c3ccccc23)NC(=O)[C@H](C)NC(=O)[C@@H]2CSSC[C@H](NC(=O)[C@H](Cc3c[nH]c4ccccc34)NC(=O)[C@H](C(C)C)NC(=O)[C@H](CC(C)C)NC(=O)[C@H](CCC(=O)O)NC(=O)CNC1=O)C(=O)N[C@@H]([C@@H](C)O)C(=O)N[C@H](C(=O)O)CSSC[C@H](N)C(=O)N[C@@H](CC(=O)O)C(=O)N2`, in assay [1], the pKd is 8.61.
For `CC(=O)N[C@@H](CC(=O)O)C(=O)N[C@H]1CSSC[C@@H](C(=O)N[C@H](C(=O)N[C@@H](Cc2ccccc2)C(=O)NC(Cc2cccnc2)C(N)=O)[C@@H](C)O)NC(=O)[C@H](Cc2c[nH]c3ccccc23)NC(=O)[C@H](C(C)C)NC(=O)[C@H](CC(C)C)NC(=O)[C@H](CCC(=O)O)NC(=O)CNC(=O)[C@H](CCCCN)NC(=O)[C@H](Cc2cnc[nH]2)NC(=O)[C@H](Cc2ccc(O)cc2)NC(=O)[C@H](C)NC1=O` (some centres undefined) (Ac-DCAYHKGELVWCTF[ξ3Pal]-NH2; disulfide 2-12), the Ka in the assay listed under Homo sapiens [2] amounted to 0.772 s⁻¹ µM⁻¹. For the same molecule, in assay [3], the pKd was 6.26. The Kdiss in the assay filed under Homo sapiens [4] came to 0.425 s⁻¹.
For `CC(=O)N[C@@H](CC(=O)O)C(=O)N[C@H]1CSSC[C@@H](C(=O)N[C@H](C(=O)N[C@@H](Cc2ccccc2)C(=O)NC(Cc2ccccn2)C(=O)O)[C@@H](C)O)NC(=O)[C@H](Cc2c[nH]c3ccccc23)NC(=O)[C@H](C(C)C)NC(=O)[C@H](CC(C)C)NC(=O)[C@H](CCC(=O)O)NC(=O)CNC(=O)[C@H](CCCCN)NC(=O)[C@H](Cc2cnc[nH]2)NC(=O)[C@H](Cc2ccc(O)cc2)NC(=O)[C@H](C)NC1=O` (mixture of isomers) the same measures were 0.69 s⁻¹ µM⁻¹, 7.01 and 0.0674 s⁻¹.
The matching figures for `CC(=O)N[C@@H](CC(=O)O)C(=O)N[C@H]1CSSC[C@@H](C(=O)N[C@H](C(=O)N[C@@H](Cc2ccccc2)C(=O)N[C@H](Cc2ccccn2)C(N)=O)[C@@H](C)O)NC(=O)[C@H](Cc2c[nH]c3ccccc23)NC(=O)[C@H](C(C)C)NC(=O)[C@H](CC(C)C)NC(=O)[C@H](CCC(=O)O)NC(=O)CNC(=O)[C@H](CCCCN)NC(=O)[C@H](Cc2cnc[nH]2)NC(=O)[C@H](Cc2ccc(O)cc2)NC(=O)[C@H](C)NC1=O`: 0.593 s⁻¹ µM⁻¹, 6.24 and 0.344 s⁻¹.
`CC(=O)N[C@@H](CC(=O)O)C(=O)N[C@H]1CSSC[C@@H](C(=O)N[C@H](C(=O)N[C@@H](Cc2ccccc2)C(=O)N[C@@H](Cc2cnc[nH]2)C(N)=O)[C@@H](C)O)NC(=O)[C@H](Cc2c[nH]c3ccccc23)NC(=O)[C@H](C(C)C)NC(=O)[C@H](CC(C)C)NC(=O)[C@H](CCC(=O)O)NC(=O)CNC(=O)[C@H](CC(C)C)NC(=O)[C@H](Cc2cnc[nH]2)NC(=O)[C@H](Cc2ccc(O)cc2)NC(=O)[C@H](C)NC1=O` (Ac-DCAYHLGELVWCTFH-NH2; disulfide 2-12): the Ka in the assay listed under Homo sapiens [5] worked out at 1.47 s⁻¹ µM⁻¹.
On the same count and under the same terms, for `CC(=O)N[C@@H](CC(=O)O)C(=O)N[C@H]1CSSC[C@@H](C(=O)N[C@H](C(=O)N[C@@H](Cc2ccccc2)C(=O)N[C@@H](Cc2cnc[nH]2)C(N)=O)[C@@H](C)O)NC(=O)[C@H](Cc2c[nH]c3ccccc23)NC(=O)[C@H](C(C)C)NC(=O)[C@H](CC(C)C)NC(=O)[C@H](CCC(=O)O)NC(=O)CNC(=O)[C@H](CCCCN)NC(=O)[C@H](Cc2cnc[nH]2)NC(=O)[C@H](Cc2ccc(O)cc2)NC(=O)[C@H](C)NC1=O` (Ac-DCAYHKGELVWCTFH-NH2; disulfide 2-12) the value was 0.741 s⁻¹ µM⁻¹.
`CC(=O)N[C@@H](CC(=O)O)C(=O)N[C@H]1CSSC[C@@H](C(=O)N[C@H](C(=O)N[C@@H](Cc2ccccc2)C(=O)NC(Cc2ccncc2)C(N)=O)[C@@H](C)O)NC(=O)[C@H](Cc2c[nH]c3ccccc23)NC(=O)[C@H](C(C)C)NC(=O)[C@H](CC(C)C)NC(=O)[C@H](CCC(=O)O)NC(=O)CNC(=O)[C@H](CCCCN)NC(=O)[C@H](Cc2cnc[nH]2)NC(=O)[C@H](Cc2ccc(O)cc2)NC(=O)[C@H](C)NC1=O` (some centres undefined) (Ac-DCAYHKGELVWCTF[ξ4Pal]-NH2; disulfide 2-12): the Ka in the assay listed under Homo sapiens [2] was found to be 0.73 s⁻¹ µM⁻¹. Also, the negative logarithm of the Kd (pKd) in assay [3] is 6.27. Further, the Kdiss in the assay filed under Homo sapiens [4] stood at 0.389 s⁻¹.
The matching figures for `CC(=O)N[C@@H](CC(=O)O)C(=O)N[C@H]1CSSC[C@@H](C(=O)N[C@H](C(=O)N[C@@H](Cc2ccccc2)C(=O)NC(Cc2cccs2)C(N)=O)[C@@H](C)O)NC(=O)[C@H](Cc2c[nH]c3ccccc23)NC(=O)[C@H](C(C)C)NC(=O)[C@H](CC(C)C)NC(=O)[C@H](CCC(=O)O)NC(=O)CNC(=O)[C@H](CCCCN)NC(=O)[C@H](Cc2cnc[nH]2)NC(=O)[C@H](Cc2ccc(O)cc2)NC(=O)[C@H](C)NC1=O` (some centres undefined) (Ac-DCAYHKGELVWCTF[ξ2Thi]-NH2; disulfide 2-12): 0.771 s⁻¹ µM⁻¹, 6.66 and 0.169 s⁻¹.
For the molecule `CC(C)C[C@@H]1NC(=O)[C@H](Cc2cnc[nH]2)NC(=O)[C@H](Cc2c[nH]c3ccccc23)NC(=O)[C@H](C)NC(=O)[C@@H](NC(=O)[C@H](CC(=O)O)NC(=O)[C@@H]2CCCN2)CSSC[C@@H](C(=O)N[C@H](C(=O)N2CCC[C@@H]2C(N)=O)[C@@H](C)O)NC(=O)[C@H](Cc2c[nH]c3ccccc23)NC(=O)[C@H](C(C)C)NC(=O)[C@H](CC(C)C)NC(=O)[C@H](CCC(=O)O)NC(=O)CNC1=O`, in assay [1], the negative-log Kd (pKd) is 8.66.

For orientation: pKd means the Kd on a negative log10 scale, so that one unit is a factor of ten.
